Test results as given in patent US8895558B2, “Arylpiperazine-containing pyrrole 3-carboxamide derivatives for treating depressive disorders” (Green Cross Corporation, priority 2008, dated 2014).
Structures can show the parent of a compound that is named as a salt.

Key:
[1] = molecular target: T1, human recombinant serotonin 5-HT2A receptor (Homo sapiens, UniProt P28223); test: Binding affinity for serotonin 5-HT2A receptor ([3H]Ketanserin); conditions: CHO-K1 expressed receptor, 1 nM [3H]Ketanserin
T1 construct: purchased PerkinElmer Life and Analytical Sciences, USA; host or cells: CHO-K1
T1 sequence (P28223 whole entry): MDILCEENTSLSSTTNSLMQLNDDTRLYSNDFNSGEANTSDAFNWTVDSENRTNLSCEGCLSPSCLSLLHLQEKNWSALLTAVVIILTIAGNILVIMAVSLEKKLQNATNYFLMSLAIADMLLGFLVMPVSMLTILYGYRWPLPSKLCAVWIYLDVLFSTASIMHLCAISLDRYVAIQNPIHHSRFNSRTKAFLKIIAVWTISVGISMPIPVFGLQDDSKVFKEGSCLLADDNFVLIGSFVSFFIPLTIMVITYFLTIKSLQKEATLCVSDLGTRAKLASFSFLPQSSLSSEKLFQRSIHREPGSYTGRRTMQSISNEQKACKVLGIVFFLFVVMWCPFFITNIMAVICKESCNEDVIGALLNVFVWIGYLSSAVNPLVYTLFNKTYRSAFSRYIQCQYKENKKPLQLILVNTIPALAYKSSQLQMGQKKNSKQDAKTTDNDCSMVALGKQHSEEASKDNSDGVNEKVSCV
Procedure: Receptor binding affinities of the compounds for serotonin receptors were measured by the method described in the literature [Park W K et al., Pharmacol Biochem Behav. 2005, 82(2), 361-372].
For serotonin 5-HT2A binding, an aliquot of human recombinant serotonin 5-HT2A receptor (PerkinElmer Life and Analytical Sciences, USA) expressed in CHO-K1 cells (5 ug/well) and 1 nM [^3H]Ketanserin (PerkinElmer) were used in the presence of mianserin (20 uM) as nonspecific. The reaction mixture was incubated for 60 min at 27 using 50 mM Tris-HCl (pH 7.4) buffer containing 4 mM CaCl2 and 0.1% ascorbic acid, and harvested through filtermate A glass fiber filter (Wallac, Finland) presoaked in 0.5% polyethyleneimine (PEI) by microbeta filtermate-96 harvester (PerkinElmer) to terminate the reaction, and then washed with ice cold 50 mM Tris-HCl buffer solution (pH 7.4). The filter was then covered with MeltiLex, sealed in a sample bag, dried in an oven. The radioactivity retained in the filter was finally counted using MicroBeta Plus (Wallac).
(§1) The binding affinity (IC50) of a compound for the receptor was calculated by computerized nonlinear regression analysis (GraphPad Prism Program, San Diego, USA) using 7-8 varied concentrations of the compound run in duplicate tubes.

[2] = molecular target: T2, human recombinant 5-HT2C receptor (Homo sapiens, UniProt P28335); test: Binding affinity for serotonin 5-HT2C receptor ([3H]Mesulergine); conditions: CHO-K1 membranes, 1.3 nM [3H]Mesulergine
T2 construct: purchased PerkinElmer
T2 sequence (P28335 33-458): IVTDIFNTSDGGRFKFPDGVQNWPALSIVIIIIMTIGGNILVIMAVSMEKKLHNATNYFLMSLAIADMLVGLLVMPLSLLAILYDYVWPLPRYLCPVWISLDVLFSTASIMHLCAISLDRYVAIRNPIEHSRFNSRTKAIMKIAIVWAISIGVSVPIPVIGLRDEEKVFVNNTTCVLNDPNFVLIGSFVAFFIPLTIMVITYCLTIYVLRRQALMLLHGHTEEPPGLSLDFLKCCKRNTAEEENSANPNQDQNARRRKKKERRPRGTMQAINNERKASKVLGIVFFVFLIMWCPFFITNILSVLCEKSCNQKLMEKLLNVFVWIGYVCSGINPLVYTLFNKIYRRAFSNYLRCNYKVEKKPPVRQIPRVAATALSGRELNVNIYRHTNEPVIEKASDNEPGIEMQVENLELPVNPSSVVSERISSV
Procedure: Receptor binding affinities of the compounds for serotonin receptors were measured by the method described in the literature [Park W K et al., Pharmacol Biochem Behav.
as §1
Nonspecific binding was determined using 100 uM mianserin. The incubations were performed for 60 min at 27, and these were terminated by rapid filtration through filtermate. A glass fiber filter presoaked in 0.5% PEI.

[3] = molecular target: T3, human serotonin transporter (Homo sapiens, UniProt P31645); test: Binding affinity for serotonin transporter ([3H]Imipramine); conditions: HEK-293 membranes, 2 nM [3H]Imipramine
T3 construct: purchased PerkinElmer; host or cells: HEK-293
T3 sequence (P31645 whole entry): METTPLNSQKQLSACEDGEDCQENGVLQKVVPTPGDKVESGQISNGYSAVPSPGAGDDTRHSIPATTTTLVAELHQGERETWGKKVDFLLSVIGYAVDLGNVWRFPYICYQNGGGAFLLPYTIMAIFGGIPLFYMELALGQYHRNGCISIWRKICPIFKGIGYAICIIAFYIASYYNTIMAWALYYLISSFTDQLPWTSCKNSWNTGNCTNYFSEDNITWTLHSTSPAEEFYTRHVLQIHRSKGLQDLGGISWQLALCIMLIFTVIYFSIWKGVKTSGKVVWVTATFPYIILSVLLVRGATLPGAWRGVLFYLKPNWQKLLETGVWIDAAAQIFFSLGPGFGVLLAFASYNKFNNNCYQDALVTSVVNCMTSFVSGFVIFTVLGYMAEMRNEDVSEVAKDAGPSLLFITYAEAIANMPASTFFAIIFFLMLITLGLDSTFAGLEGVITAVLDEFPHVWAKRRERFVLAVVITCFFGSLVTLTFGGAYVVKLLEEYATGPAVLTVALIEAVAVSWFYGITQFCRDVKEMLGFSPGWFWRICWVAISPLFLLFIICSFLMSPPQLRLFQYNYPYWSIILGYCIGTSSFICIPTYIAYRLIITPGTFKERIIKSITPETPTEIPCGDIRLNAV
Procedure: For serotonin transporter binding assays, a reaction mixture with a final volume of 0.25 ml was prepared by mixing a test compound, human serotonin transporter membrane expressed in HEK-293 cells (PerkinElmer, 5 ug/well), [^3H]Imipramine (PerkinElmer, 2 nM) and 50 mM Tris-HCl (pH 7.4) buffer containing 120 mM NaCl and 5 mM KCl. The reaction mixture was incubated for 30 min at 27, and harvested through filtermate. A glass fiber filter presoaked in 0.5% PEI with ice cold 50 mM Tris-HCl buffer (pH 7.4) containing 0.9% NaCl.

Row | SMILES | IC50 [1] [nM] | IC50 [2] [nM] | IC50 [3] [nM]
1 | Cc1[nH]c(-c2ccc(Cl)cc2)cc1C(=O)NCCN1CCN(c2cccc(Cl)c2Cl)CC1 [Example 67, 5-(4-chlorophenyl)-N-(2-(4-(2,3-dichlorophenyl)piperazin-1-ypethyl)-2-methyl-1H-pyrrole-3-carboxamide hydrochloride] | 100 | 23 | 233
2 | Cc1cccc(N2CCN(CCCNC(=O)c3cc(-c4ccccc4)n(-c4ccc(F)cc4)c3C)CC2)c1C [Example 15, N-(3-(4-(2,3-dimethylphenyl)piperazin-1-yl)propyl)-1-(4-fluorophenyl)-2-methyl-5-phenyl-1H-pyrrole-3-carboxamide] | 6.9 | 162 | 53.6
3 | CCCn1c(C)c(C(=O)NCCCN2CCN(c3cccc(Cl)c3Cl)CC2)c(C)c1-c1ccccc1 [Example 81, N-(3-(4-(2,3-dichlorophenyl)piperazin-1-yl)propyl)-2,4-dimethyl-5-phenyl-1-propyl-1H-pyrrole-3-carboxamide hydrochloride] | 25 | 75 | 78
4 | Cc1cccc(N2CCN(CCCNC(=O)c3cc(-c4ccc(Cl)cc4)[nH]c3C)CC2)c1C [Example 44, 5-(4-chlorophenyl)-N-(3-(4-(2,3-dimethylphenyl)piperazin-1-yl)propyl)-2-methyl-1H-pyrrole-3-carboxamide hydrochloride] | 92 | 189 | 19
5 | CCn1c(-c2ccccc2)cc(C(=O)NCCCCN2CCN(c3cccc(C)c3C)CC2)c1C [Example 42, N-(4-(4-(2,3-dimethylphenyl)piperazin-1-yl)butyl)-1-ethyl-2-methyl-5-phenyl-1H-pyrrole-3-carboxamide hydrochloride] | 10 | 17 | 65
6 | Cc1[nH]c(-c2ccccc2)cc1C(=O)NCCN1CCN(c2cccc(Cl)c2Cl)CC1 [Example 38, N-(2-(4-(2,3-dichlorophenyl)piperazin-1-yl)ethyl)-2-methyl-5-phenyl-1H-pyrrole-3-carboxamide hydrochloride] | 40 | 37 | 87
7 | CCCn1c(-c2ccccc2)cc(C(=O)NCCCN2CCN(c3ccc(OC)cc3)CC2)c1C [Example 87, N-(3-(4-(4-methoxyphenyl)piperazin-1-yl)propyl)-2-methyl-5-phenyl-1-propyl-1H-pyrrole-3-carboxamide dihydrochloride] | 647 | 4830 | 628
8 | Cc1c(C(=O)NCCCN2CCN(c3cccc(Cl)c3Cl)CC2)cc(-c2ccccn2)n1C [Example 92, N-(3-(4-(2,3-dichlorophenyl)piperazin-1-yl)propyl)-1,2-dimethyl-5-(pyridin-2-yl)-1H-pyrrole-3-carboxamide dihydrochloride] | 43 | 267 | 110
9 | Cc1c(C(=O)NCCCN2CCN(c3cc(Cl)ccc3Cl)CC2)cc(-c2ccccc2)n1C [Example 156, N-(3-(4-(2,5-Ddichlorophenyl)piperazin-1-yl)propyl)-1,2-dimethyl-5-phenyl-1H-pyrrole-3-carboxamide] | 585 | 806 | 134
10 | Cc1cccc(N2CCN(CCCNC(=O)c3cc(-c4ccccc4)n(Cc4ccccc4)c3C)CC2)c1C [Example 18, 1-Benzyl-N-(3-(4-(2,3-dimethylphenyl)piperazin-1-yl)propyl)-2-methyl-5-phenyl-1H-pyrrole-3-carboxamide] | 224 | 297 | 14.3
11 | Cc1[nH]c(-c2ccc(Cl)cc2)cc1C(=O)NCCCCN1CCN(c2cccc(Cl)c2Cl)CC1 [Example 47, 5-(4-chlorophenyl)-N-(4-(4-(2,3-dichlorophenyl)piperazin-1-yl)butyl)-2-methyl-1H-pyrrole-3-carboxamide hydrochloride] | 56 | 62 | 122
12 | Cc1cccc(N2CCN(CCCNC(=O)c3cc(-c4ccccc4)n(CC4CCCCC4)c3C)CC2)c1C [Example 21, 1-(Cyclohexylmethyl)-N-(3-(4-(2,3-dimethylphenyl)piperazin-1-yl)propyl)-2-methyl-5-phenyl-1H-pyrrole-3-carboxamide] | 1230 | 638 | 352
13 | O=C(NCCCN1CCN(c2cccc(Cl)c2Cl)CC1)c1c[nH]c(-c2ccccc2)c1 [Example 124, N-(3-(4-(2,3-dichlorophenyl)piperazin-1-yl)propyl)-5-phenyl-1H-pyrrole-3-carboxamide] | 23 | 106 | 54
14 | CCn1c(-c2ccc(Cl)cc2)cc(C(=O)NCCCN2CCN(c3cccc(C)c3C)CC2)c1C [Example 63, 5-(4-chlorophenyl)-N-(3-(4-(2,3-dimethylphenyl)piperazin-1-yl)propyl)-1-ethyl-2-methyl-1H-pyrrole-3-carboxamide hydrochloride] | 151 | 39 | 93
15 | Cc1c(C(=O)NCCCN2CCN(c3ccc(Cl)cc3Cl)CC2)cc(-c2ccccc2)n1C [Example 154, N-(3-(4-(2,4-Dichlorophenyl)piperazin-1-yl)propyl)-1,2-dimethyl-5-phenyl-1H-pyrrole-3-carboxamide hydrochloride] | 213 | 349 | 23
16 | Cc1cccc(N2CCN(CCCNC(=O)c3cc(-c4ccc(Cl)cc4)n(C)c3C)CC2)c1C [Example 61, 5-(4-chlorophenyl)-N-(3-(4-(2,3-dimethylphenyl)piperazin-1-yl)propyl)-1,2-dimethyl-1H-pyrrole-3-carboxamide hydrochloride] | 213 | 129 | 129
17 | Cc1cccc(N2CCN(CCCCNC(=O)c3cc(-c4ccccc4)[nH]c3C)CC2)c1C [Example 40, N-(4-(4-(2,3-dimethylphenyl)piperazin-1-yl)butyl)-2-methyl-5-phenyl-1H-pyrrole-3-carboxamide hydrochloride] | 10 | 63 | 21
18 | COc1ccc(-c2cc(C(=O)NCCCN3CCN(c4cccc(Cl)c4Cl)CC3)c(C)[nH]2)cc1 [Example 73, N-(3-(4-(2,3-dichlorophenyl)piperazin-1-yl)propyl)-5-(4-methoxyphenyl)-2-methyl-1H-pyrrole-3-carboxamide hydrochloride] | 37 | 201 | 204
19 | CCCn1c(-c2ccccc2)cc(C(=O)NCCCN2CCN(c3ccccc3C#N)CC2)c1C [Example 90, N-(3-(4-(2-cyanophenyl)piperazin-1-yl)propyl)-2-methyl-5-phenyl-1-propyl-1H-pyrrole-3-carboxamide hydrochloride] | 269 | 637 | 223
20 | CCCn1c(-c2ccccc2)cc(C(=O)NCCCCN2CCN(c3cccc(C)c3C)CC2)c1C [Example 33, N-(4-(4-(2,3-dimethylphenyl)piperazin-1-yl)butyl)-2-methyl-5-phenyl-1-propyl-1H-pyrrole-3-carboxamide hydrochloride] | 792 | 149 | 76
21 | Cc1c(C(=O)NCCCN2CCN(c3cccc(Cl)c3Cl)CC2)cc(-c2ccccc2)n1CC(C)C [Example 28, N-(3-(4-(2,3-dichlorophenyl)piperazin-1-yl)propyl)-1-isobutyl-2-methyl-5-phenyl-1H-pyrrole-3-carboxamide] | 406 | 342 | 381
22 | Cc1c(C(=O)NCCCN2CCN(c3cccc(Cl)c3Cl)CC2)cc(-c2cccnc2)n1C [Example 100, N-(3-(4-(2,3-dichlorophenyl)piperazin-1-yl)propyl)-1,2-dimethyl-5-(pyridin-3-yl)-1H-pyrrole-3-carboxamide] | 49 | 209 | 92
